Measured values reported in ChEMBL document CHEMBL1154684, “Cytotoxicity of new n-butylamino and sulfur-containing derivatives of polyfluorinated 1,4-naphthoquinone” (Eur J Med Chem, 2010).
≈ marks a conversion by molar mass, not a printed value. Calls of active or inactive are those of the source. The calls are words filed in the database; no cut-off is given here.

Assays:
MCF7 [1] = assay: Cytotoxicity against human MCF7 after 72 hrs by MTT assay; assay type: functional, cell-based
RPMI-8226 [2] = assay: Cytotoxicity against human RPMI8226 after 72 hrs by MTT assay; assay type: functional, cell-based
[3] = Cytotoxicity against mouse LMTK at 173 uM after 72 hrs by MTT assay
RPMI-8226 [4] = assay: Cytotoxicity against human RPMI8226 at 25 ug/ml after 72 hrs by MTT assay; assay type: functional; conditions: RPMI-8226, 72 h
MCF7 [5] = assay: Cytotoxicity against human MCF7 at 25 ug/ml after 72 hrs by MTT assay; assay type: functional, cell-based; conditions: MCF7, 72 h
Salmonella typhimurium [6] = assay: Antimutagenic activity in Salmonella Typhimurium TA102 assessed as inhibition of H2O2-induced mutagenesis at 0.05 to […] after 48 hrs by Ames test; assay type: functional, organism-based; conditions: Salmonella enterica subsp. enterica serovar Typhimurium
Salmonella typhimurium [7] = assay: Antimutagenic activity in Salmonella Typhimurium TA102 assessed as inhibition of H2O2-induced mutagenesis at 23.5 uM after 48 hrs by Ames test; assay type: functional, Salmonella enterica subsp. enterica serovar Typhimurium; conditions: Salmonella enterica, TA102, 48 h
Salmonella typhimurium [8] = assay: Antimutagenic activity in Salmonella Typhimurium TA102 assessed as inhibition of H2O2-induced mutagenesis at 26.9 uM after 48 hrs by Ames test; assay type: functional, organism-based, Salmonella enterica subsp. enterica serovar Typhimurium

| SMILES | IC50 (MCF7 [1]) | IC50 (RPMI-8226 [2]) | IC50 [3] | inhibition at 25 µg/mL (RPMI-8226 [4]) | inhibition at 25 µg/mL (MCF7 [5]) | Activity (Salmonella typhimurium [6]) | inhibition at 23.5 µM (Salmonella typhimurium [7]) | Inhibition (Salmonella typhimurium [8]) |
| --- | --- | --- | --- | --- | --- | --- | --- | --- |
| CC1=C(SCCO)C(=O)c2c(F)c(F)c(F)c(F)c2C1=O | 173 µg/mL (≈ 540 µM) | 14.8 µg/mL (≈ 46.2 µM) | Not Active |  |  |  |  |  |
| CCCCNC1=C(F)C(=O)c2c(F)c(NCCCC)c(F)c(NCCCC)c2C1=O |  |  |  | 30% | 45% | Active | 55% |  |
| CCCCNC1=C(F)C(=O)c2c(F)c(NCCCC)c(F)c(F)c2C1=O |  |  |  | 17% | 10% | Active |  | 81% |
